# Source: patent publication US20160279252A1, “COMPOSITIONS FOR INDUCING IMMUNE TOLERANCE TO COAGULATION FACTOR PROTEINS” (BAYER HEALTHCARE LLC, priority 2013, published 2016)
# What was measured:
# C57BL/6J mice = experiment: Tolerization of C57BL/6J mice to HEL (anti-HEL titers); format: in vivo, mouse; conditions: for effect of ligand amount on liposomes on antibody production: HEL liposomes with varying ligand, day 44 after two challenges
# Description: Immunization and Blood Collection: Whole blood (50 μL) was collected from mice via a retro-orbital bleed using heparinized capillary tubes (Fisher). Blood was centrifuged (17,000 rcf, 1 min) to collect the serum. Serum was either used immediately for ELISAs or stored at −20° C. […] Liposomes and cells were delivered via the lateral tail vein in a volume of 200 μL. For studies involving a challenge with soluble (non-liposomal) antigen, mice were injected with 200 μg of HEL dissolved in HBSS and delivered intraperitoneally or 1 μg of FVIII delivered intravenously.
# ELISAs: Maxisorp plates (96-well; Thermo Fisher) were coated with 50 μL/well of the relevant protein at a concentration of between 10-100 μg/mL in PBS and left overnight at 4° C. […] The following day, the plates were washed twice in TBS-T (Tris-buffered saline blocked containing 0.1% Tween 20) and blocked for 1 hr at RT with 100 μL of assay diluent (TBS-T with 1% BSA). Washing of the plates was accomplished by submerging the entire plate into a basin of wash buffer the appropriate number of times. Serum was initially diluted between 20-10,000-fold and diluted in 2-3 fold serial dilutions eight times on the ELISA plate. Plates were incubated with serum (50 μL/well) for 1 hr at 37° C. after which the plates were washed four times in TBS-T. HRP-conjugated secondary antibodies (Santa Cruz Biotechnologies) were diluted 2000-fold in assay diluent and 50 μL was added to each well. After incubation for 1 hr at 37° C., the plates were washed five times in TBS-T. To develop the plate, 75 μL/well of TMB substrate (Thermo Fisher) was added. The plate was incubated at RT for 15 minutes and then 75 μL/well of 2N H2504 was added to quench the reaction. Plates were read at 450 nm using a spectrophotometer (Molecular Devices). The titer was defined as the endpoint titer, which was the dilution of serum that produced an absorbance 2-fold above background.
# Liposomes: All liposomes were composed of a 60:35:5 molar ratio of distearoyl phosphatidylcholine (DSPC; Avanti Polar Lipids), cholesterol (Sigma), and pegylated lipids. […]
# murine CD22 = target: T1, murine CD22 (Mus musculus, UniProt P35329); conditions: vs NeuGcα2-6Galβ1-4GlcNAc; cited from earlier work
# T1 sequence (P35329 22-868): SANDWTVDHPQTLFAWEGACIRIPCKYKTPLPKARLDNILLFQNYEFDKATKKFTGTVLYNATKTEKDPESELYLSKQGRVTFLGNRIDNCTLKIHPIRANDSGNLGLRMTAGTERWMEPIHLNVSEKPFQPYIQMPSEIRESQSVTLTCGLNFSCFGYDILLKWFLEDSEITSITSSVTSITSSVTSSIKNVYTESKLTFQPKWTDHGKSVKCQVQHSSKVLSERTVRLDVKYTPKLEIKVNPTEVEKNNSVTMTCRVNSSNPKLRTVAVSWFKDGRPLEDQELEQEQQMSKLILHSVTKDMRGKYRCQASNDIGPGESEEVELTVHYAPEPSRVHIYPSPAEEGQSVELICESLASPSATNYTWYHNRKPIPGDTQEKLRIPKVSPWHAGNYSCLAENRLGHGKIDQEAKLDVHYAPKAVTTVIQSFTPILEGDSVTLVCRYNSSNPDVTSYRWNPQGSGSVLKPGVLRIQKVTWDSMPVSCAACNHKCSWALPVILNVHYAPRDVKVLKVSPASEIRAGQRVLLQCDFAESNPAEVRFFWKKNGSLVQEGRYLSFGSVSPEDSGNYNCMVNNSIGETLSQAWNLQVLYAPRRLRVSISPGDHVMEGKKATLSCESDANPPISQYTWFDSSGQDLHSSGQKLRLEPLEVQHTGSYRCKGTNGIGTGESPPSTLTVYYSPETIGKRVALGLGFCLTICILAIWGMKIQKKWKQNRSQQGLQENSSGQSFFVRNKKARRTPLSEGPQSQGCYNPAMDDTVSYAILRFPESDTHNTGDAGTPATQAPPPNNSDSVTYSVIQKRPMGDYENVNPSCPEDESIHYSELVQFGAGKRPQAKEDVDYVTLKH
# Siglec-G = target: T2, Siglec-G (Mus musculus, UniProt Q80ZE3); conditions: cited from earlier work
# T2 sequence (Q80ZE3 18-688): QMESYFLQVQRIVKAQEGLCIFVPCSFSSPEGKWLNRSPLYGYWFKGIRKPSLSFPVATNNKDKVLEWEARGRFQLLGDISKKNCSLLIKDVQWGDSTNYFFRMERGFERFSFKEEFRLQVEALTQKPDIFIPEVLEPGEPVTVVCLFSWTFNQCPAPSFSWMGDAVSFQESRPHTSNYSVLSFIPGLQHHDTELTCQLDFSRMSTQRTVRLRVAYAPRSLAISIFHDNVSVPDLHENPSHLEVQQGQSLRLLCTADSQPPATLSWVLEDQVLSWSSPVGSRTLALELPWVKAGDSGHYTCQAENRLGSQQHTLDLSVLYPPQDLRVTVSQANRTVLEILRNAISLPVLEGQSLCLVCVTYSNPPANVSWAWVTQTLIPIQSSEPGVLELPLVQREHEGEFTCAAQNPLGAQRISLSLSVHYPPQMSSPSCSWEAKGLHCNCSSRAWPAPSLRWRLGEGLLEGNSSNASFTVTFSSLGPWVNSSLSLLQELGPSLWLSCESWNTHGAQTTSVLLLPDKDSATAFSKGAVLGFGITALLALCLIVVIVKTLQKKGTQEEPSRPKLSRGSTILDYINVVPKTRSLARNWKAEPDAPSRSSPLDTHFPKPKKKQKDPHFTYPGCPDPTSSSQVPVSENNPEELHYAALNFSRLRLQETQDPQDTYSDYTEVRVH
# human CD22 = human CD22 (Homo sapiens, UniProt P20273); conditions: cited from earlier work
# Sequence of human CD22 (P20273 20-847): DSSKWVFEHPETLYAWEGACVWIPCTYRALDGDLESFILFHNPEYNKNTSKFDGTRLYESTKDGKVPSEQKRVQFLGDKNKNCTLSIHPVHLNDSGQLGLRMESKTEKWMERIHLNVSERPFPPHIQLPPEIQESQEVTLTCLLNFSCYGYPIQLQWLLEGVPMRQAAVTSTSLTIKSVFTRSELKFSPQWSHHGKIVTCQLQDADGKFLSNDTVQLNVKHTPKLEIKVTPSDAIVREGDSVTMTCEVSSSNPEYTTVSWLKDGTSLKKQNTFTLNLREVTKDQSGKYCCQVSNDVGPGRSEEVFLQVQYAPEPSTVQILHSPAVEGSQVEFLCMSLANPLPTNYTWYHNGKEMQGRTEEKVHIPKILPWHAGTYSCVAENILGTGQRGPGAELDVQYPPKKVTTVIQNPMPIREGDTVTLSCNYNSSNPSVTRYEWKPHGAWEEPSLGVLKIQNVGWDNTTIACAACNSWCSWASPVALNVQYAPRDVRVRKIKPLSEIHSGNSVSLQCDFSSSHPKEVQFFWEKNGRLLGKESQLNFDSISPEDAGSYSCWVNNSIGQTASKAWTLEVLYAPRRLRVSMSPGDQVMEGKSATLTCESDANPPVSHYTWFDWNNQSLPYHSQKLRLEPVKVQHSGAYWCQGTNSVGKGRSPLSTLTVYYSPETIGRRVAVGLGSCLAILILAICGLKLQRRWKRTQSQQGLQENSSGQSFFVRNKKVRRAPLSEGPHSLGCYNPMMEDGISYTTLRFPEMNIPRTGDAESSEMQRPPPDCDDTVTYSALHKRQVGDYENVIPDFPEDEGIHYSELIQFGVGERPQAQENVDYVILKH
# FVIII deficient plasma = experiment: Coagulation assay (one-stage aPTT clotting FVIII:C); format: biochemical; conditions: PEGylated with PEGs 6 kD to 64 kD, assayed without purification
# Description: COAGULATION ASSAY. The clotting FVIII:C test method is a one-stage assay based upon the activated partial thromboplastin time (aPTT). FVIII acts as a cofactor in the presence of Factor IXa, calcium, and phospholipid in the enzymatic conversion of Factor X to Xa. In this assay, the diluted test samples are incubated at 37° C. with a mixture of FVIII deficient plasma substrate and aPTT reagent. Calcium chloride is added to the incubated mixture and clotting is initiated. An inverse relationship exists between the time (seconds) it takes for a clot to form and logarithm of the concentration of FVIII:C. Activity levels for unknown samples are interpolated by comparing the clotting times of various dilutions of test material with a curve constructed from a series of dilutions of standard material of known activity and are reported in International Units per mL (IU/mL).
# EFFECT OF PEG SIZE ON ACTIVITY. To test whether PEG sizes have an effect on both coagulation and chromogenic activities of FVIII upon PEGylation, purified full-length FVIII, PEG2, PEG6, and PEG14 were reduced by TCEP followed by reductant removal and reaction with a buffer control or PEGs ranging from 6 kD to 64 kD. The resulting PEGylated FVIII was directly assayed without removal of excess PEG or unPEGylated FVIII.
molecule,measurement,setting,value
9-N-biphenylacetyl-NeuGcα2-6Galβ1-4GlcNAc [^BPANeuGc],effect of ligand amount on liposomes on antibody production,C57BL/6J mice,dose-dependent effect on antibody production
same,difference in EC50 between the two ligands,C57BL/6J mice; ^BPANeuGc vs NeuGc on tolerogenic HEL liposomes,two orders of magnitude difference
same,affinity for murine CD22 relative to natural ligand,murine CD22,200 fold
same,cross-reactivity with Siglec-G,Siglec-G,only a small degree of cross-reactivity
9-N-biphenylcarboxyl-NeuAca2-6Galβ3-4GlcNAc [^BPCNeuAc],affinity for human CD22,human CD22,high affinity
"CC(=O)NC1C(O)OC(CO)C(OC2OC(COC3(C(=O)O)CC(O)C(NC(=O)CO)C(C(O)C(O)CO)O3)C(O)C(O)C2O)C1O (stereo not shown) [NeuGc, NeuGcα2-6Galβ1-4GlcNAc]",effect of ligand amount on liposomes on antibody production,C57BL/6J mice,dose-dependent effect on antibody production
PEG6,coagulation activity upon PEGylation,FVIII deficient plasma,dramatic losses of coagulation activity
